These results are taken from patent US20230257372A1 (CHONG KUN DANG PHARMACEUTICAL CORP., priority 2020, published 2023).

Read-outs that look alike come from different tables or passages of the source.

One test addresses T1, human recombinant HDAC6 (Homo sapiens, UniProt Q9UBN7).
T1 construct: purchased Calbiochem Inc. 382180
T1 sequence (Q9UBN7 1-1215): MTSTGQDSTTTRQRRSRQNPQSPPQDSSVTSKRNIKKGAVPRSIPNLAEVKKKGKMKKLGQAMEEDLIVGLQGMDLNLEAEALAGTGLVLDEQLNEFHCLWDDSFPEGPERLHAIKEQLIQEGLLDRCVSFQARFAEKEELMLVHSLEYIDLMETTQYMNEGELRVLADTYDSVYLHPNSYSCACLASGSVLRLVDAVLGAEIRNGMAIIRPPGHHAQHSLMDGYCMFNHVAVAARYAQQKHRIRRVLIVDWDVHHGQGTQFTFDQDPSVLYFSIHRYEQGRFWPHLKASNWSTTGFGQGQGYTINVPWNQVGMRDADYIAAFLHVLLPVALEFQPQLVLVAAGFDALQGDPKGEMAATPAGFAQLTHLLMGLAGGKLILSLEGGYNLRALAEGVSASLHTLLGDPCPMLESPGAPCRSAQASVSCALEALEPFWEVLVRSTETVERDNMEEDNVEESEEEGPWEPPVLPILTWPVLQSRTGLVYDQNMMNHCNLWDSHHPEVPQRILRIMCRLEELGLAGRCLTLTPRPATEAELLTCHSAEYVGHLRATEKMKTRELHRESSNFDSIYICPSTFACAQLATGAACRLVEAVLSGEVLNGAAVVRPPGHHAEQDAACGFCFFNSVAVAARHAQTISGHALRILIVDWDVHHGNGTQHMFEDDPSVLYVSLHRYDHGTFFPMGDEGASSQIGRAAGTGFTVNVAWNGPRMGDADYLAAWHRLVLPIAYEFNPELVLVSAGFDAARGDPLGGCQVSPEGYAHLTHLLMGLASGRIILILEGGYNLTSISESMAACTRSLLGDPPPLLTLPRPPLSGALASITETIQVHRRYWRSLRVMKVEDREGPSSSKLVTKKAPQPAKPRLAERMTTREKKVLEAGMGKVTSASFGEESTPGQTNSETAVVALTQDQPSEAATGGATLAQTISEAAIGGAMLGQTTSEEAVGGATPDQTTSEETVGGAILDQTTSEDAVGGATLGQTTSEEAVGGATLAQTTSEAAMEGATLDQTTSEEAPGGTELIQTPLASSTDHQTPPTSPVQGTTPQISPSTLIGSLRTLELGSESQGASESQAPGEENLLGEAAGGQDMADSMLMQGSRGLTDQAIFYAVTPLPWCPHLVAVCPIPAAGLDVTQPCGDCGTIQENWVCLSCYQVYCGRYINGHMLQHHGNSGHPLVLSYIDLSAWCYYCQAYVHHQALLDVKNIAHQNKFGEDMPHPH
The test can be described thus: HDAC6 enzyme activity inhibition (HDAC Fluorimetric Drug Discovery Kit). Format: biochemical. A digest of the protocol:
(§1)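 Each isoform is run in the same format: compound dilutions (5-fold steps), 10 μM substrate, […] enzyme, one hour at 30° C, then 30 minutes with developer before fluorescence readout.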

Another test has as its target T2, human recombinant HDAC1 (Homo sapiens, UniProt Q13547).
T2 construct: purchased Enzo Life Science, Inc. BML-SE456
Description: HDAC1 enzyme activity inhibition (HDAC Fluorimetric Drug Discovery Kit). Format: biochemical. The conditions noted are these: read-out: HDAC1. The method in brief: as §1

[1] abbreviates: human recombinant HDAC6, same protocol as HDAC1.
The mark [2] stands for this setting: human recombinant HDAC1, Fluor de Lys substrate, 30° C. 60 minutes.
Setting [3] is: human recombinant HDAC6, IC50 calculated with GraphPad Prism.
Where [4] appears, read: human recombinant HDAC1, IC50 calculated with GraphPad Prism.

T2 sequence (Q13547 whole entry): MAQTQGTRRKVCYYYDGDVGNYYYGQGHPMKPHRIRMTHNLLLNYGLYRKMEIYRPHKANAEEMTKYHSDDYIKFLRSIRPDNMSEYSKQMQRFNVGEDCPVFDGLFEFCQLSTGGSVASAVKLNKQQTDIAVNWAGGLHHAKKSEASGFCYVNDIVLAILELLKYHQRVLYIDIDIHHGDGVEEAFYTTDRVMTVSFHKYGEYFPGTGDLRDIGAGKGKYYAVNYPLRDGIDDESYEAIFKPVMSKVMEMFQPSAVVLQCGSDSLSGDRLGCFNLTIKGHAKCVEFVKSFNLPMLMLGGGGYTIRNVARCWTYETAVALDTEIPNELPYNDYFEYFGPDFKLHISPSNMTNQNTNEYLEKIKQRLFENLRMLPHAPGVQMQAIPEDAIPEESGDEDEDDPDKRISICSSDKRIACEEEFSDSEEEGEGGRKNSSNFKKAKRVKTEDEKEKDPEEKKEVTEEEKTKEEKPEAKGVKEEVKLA

Turning to `CN1CCN(c2cccc(-c3cn(Cc4ccc(-c5nnc(C(F)F)o5)cn4)nn3)c2F)CC1` [Compound 4569, 2-(difluoromethyl)-5-(6-((4-(2-fluoro-3-(4-methylpiperazin-1-yl)phenyl)-1H-1,2,3-triazol-1-yl)methyl)pyridin-3-yl)-1,3,4-oxadiazole], the “HDAC6 selectivity (fold)” value on human recombinant HDAC6 (HDAC6 over HDAC1) worked out at 3649 fold. Also, the IC50 at human recombinant HDAC6 (setting [1]) was 13.7 nM; on human recombinant HDAC1 (setting [2]) it was greater than 50 µM.

As for `CC(C)(C)OC(=O)Nc1cccc(-c2cn(Cc3ccc(-c4nnc(C(F)F)o4)cc3F)nn2)c1` [Compound 3697, Tert-butyl (3-(1-(4-(5-(difluoromethyl)-1,3,4-oxadiazol-2-yl)-2-fluorobenzyl)-1H-1,2,3-triazol-4-yl)phenyl)carbamate], at human recombinant HDAC6 (HDAC1 IC50 / HDAC6 IC50), the “HDAC6 selectivity (fold)” value worked out at 1101 fold. The IC50 at human recombinant HDAC6 (setting [3]) is 45.4 nM; on human recombinant HDAC1 (setting [4]), greater than 50 µM.

For `CN1Cc2cccc(-c3cn(Cc4ccc(-c5nnc(C(F)F)o5)cc4F)nn3)c2C1` [Compound 4534, 2-(difluoromethyl)-5-(3-fluoro-4-((4-(2-methylisoindolin-4-yl)-1H-1,2,3-triazol-1-yl)methyl)phenyl)-1,3,4-oxadiazole], the “HDAC6 selectivity (fold)” value at human recombinant HDAC6 (HDAC6 over HDAC1) is reported as 529 fold. Further, the IC50 was 94.4 nM at human recombinant HDAC6 (setting [1]) and greater than 50 µM on human recombinant HDAC1 (setting [2]).

As to `CC(C)(C)OC(=O)Nc1cccc(-c2cn(Cc3ccc(-c4nnc(C(F)F)o4)cc3)nn2)c1` [Compound 3698, Tert-butyl (3-(1-(4-(5-(difluoromethyl)-1,3,4-oxadiazol-2-yl)benzyl)-1H-1,2,3-triazol-4-yl)phenyl)carbamate], the “HDAC6 selectivity (fold)” value at human recombinant HDAC6 (HDAC1 IC50 / HDAC6 IC50) was found to be 1096 fold. In addition, the IC50 on human recombinant HDAC6 (setting [3]) was 45.6 nM; on human recombinant HDAC1 (setting [4]), greater than 50 µM.

As to `CCN1CCc2ccc(-c3cn(Cc4ccc(-c5nnc(C(F)F)o5)cc4F)nn3)cc2C1` [Compound 4364, 2-(difluoromethyl)-5-(4-((4-(2-ethyl-1,2,3,4-tetrahydroisoquinolin-7-yl)-1H-1,2,3-triazol-1-yl)methyl)-3-fluorophenyl)-1,3,4-oxadiazole], the “HDAC6 selectivity (fold)” value at human recombinant HDAC6 (HDAC1 IC50 / HDAC6 IC50) worked out at 1160 fold. For the same molecule, the IC50 was 43.1 nM on human recombinant HDAC6 (setting [3]) and greater than 50 µM at human recombinant HDAC1 (setting [4]).

Take `CC1CCN(Cc2ccc(-c3cn(Cc4ccc(-c5nnc(C(F)F)o5)cc4F)nn3)s2)CC1` [Compound 17915]: the “HDAC6 selectivity (fold)” value at human recombinant HDAC6 (HDAC6 over HDAC1) worked out at 568 fold. Also, the IC50 is 87.9 nM on human recombinant HDAC6 (setting [1]) and greater than 50 µM at human recombinant HDAC1 (setting [2]).

As for `FC(F)c1nnc(-c2ccc(Cn3cc(-c4cccc(C5CN(C6CCC6)C5)c4)nn3)nc2)o1` [Compound 4504, 2-(6-((4-(3-(1-cyclobutylazetidin-3-yl)phenyl)-1H-1,2,3-triazol-1-yl)methyl)pyridin-3-yl)-5-(difluoromethyl)-1,3,4-oxadiazole], the “HDAC6 selectivity (fold)” value on human recombinant HDAC6 (HDAC6 over HDAC1) was 3703 fold. In addition, the IC50 at human recombinant HDAC6 (setting [1]) is 13.5 nM; at human recombinant HDAC1 (setting [2]), greater than 50 µM.

Turning to `COC(=O)N1CCC[C@H]1c1cn(Cc2ccc(-c3nnc(C(F)F)o3)cn2)nn1` [Compound 4028, methyl (S)-2-(1-((5-(5-(difluoromethyl)-1,3,4-oxadiazol-2-yl)pyridin-2-yl)methyl)-1H-1,2,3-triazol-4-yl)pyrrolidin-1-carboxylate], the “HDAC6 selectivity (fold)” value at human recombinant HDAC6 (HDAC1 IC50 / HDAC6 IC50) is given as 238 fold. The IC50 at human recombinant HDAC6 (setting [3]) was 210 nM; on human recombinant HDAC1 (setting [4]), greater than 50 µM.

In the case of `CCN1CC(c2cccc(-c3cn(Cc4ccc(-c5nnc(C(F)F)o5)cc4F)nn3)c2)C1` [Compound 4506, 2-(difluoromethyl)-5-(4-((4-(3-(1-ethylazetidin-3-yl)phenyl)-1H-1,2,3-triazol-1-yl)methyl)-3-fluorophenyl)-1,3,4-oxadiazole], on human recombinant HDAC6 (HDAC6 over HDAC1), the “HDAC6 selectivity (fold)” value worked out at 2262 fold. The IC50 at human recombinant HDAC6 (setting [1]) was 22.1 nM; at human recombinant HDAC1 (setting [2]), greater than 50 µM.

On to `CCN(CC)Cc1ccc(-c2cn(Cc3ccc(-c4nnc(C(F)F)o4)cc3F)nn2)cc1` [Compound 4608, N-(4-(1-(4-(5-(difluoromethyl)-1,3,4-oxadiazol-2-yl)-2-fluorobenzyl)-1H-1,2,3-triazol-4-yl)benzyl)-N-ethylethanamine], for which, on human recombinant HDAC6 (HDAC6 over HDAC1), the “HDAC6 selectivity (fold)” value was determined as 1893 fold. Also, the figures for the IC50 at human recombinant HDAC6 (setting [1]) and at human recombinant HDAC1 (setting [2]) were 26.4 nM and greater than 50 µM, respectively.

For `CCCN1CCN(c2cccc(-c3cn(Cc4ccc(-c5nnc(C(F)F)o5)cc4F)nn3)c2)CC1` [Compound 4374, 2-(difluoromethyl)-5-(3-fluoro-4-((4-(3-(4-propylpiperazin-1-yl)phenyl)-1H-1,2,3-triazol-1-yl)methyl)phenyl)-1,3,4-oxadiazole], the “HDAC6 selectivity (fold)” value on human recombinant HDAC6 (HDAC1 IC50 / HDAC6 IC50) was determined as 228 fold. In addition, the figures for the IC50 on human recombinant HDAC6 (setting [3]) and at human recombinant HDAC1 (setting [4]) were 21.9 nM and greater than 50 µM, respectively.

As to `CCN1Cc2cccc(-c3cn(Cc4ccc(-c5nnc(C(F)F)o5)cc4F)nn3)c2C1` [Compound 4535, 2-(difluoromethyl)-5-(4-((4-(2-ethylisoindolin-4-yl)-1H-1,2,3-triazol-1-yl)methyl)-3-fluorophenyl)-1,3,4-oxadiazole], on human recombinant HDAC6 (HDAC6 over HDAC1), the “HDAC6 selectivity (fold)” value amounted to 512 fold. For the same molecule, the IC50 was 97.5 nM on human recombinant HDAC6 (setting [1]) and greater than 50 µM at human recombinant HDAC1 (setting [2]).

Consider `FC(F)c1nnc(-c2ccc(Cn3cc(-c4cccc(NC5COC5)c4)nn3)cc2)o1` [Compound 4326, N-(3-(1-(4-(5-(difluoromethyl)-1,3,4-oxadiazol-2-yl)benzyl)-1H-1,2,3-triazol-4-yl)phenyl)oxetan-3-amine], for which the “HDAC6 selectivity (fold)” value at human recombinant HDAC6 (HDAC1 IC50 / HDAC6 IC50) amounted to 889 fold. Besides, the figures for the IC50 on human recombinant HDAC6 (setting [3]) and at human recombinant HDAC1 (setting [4]) were 56.2 nM and greater than 50 µM, respectively.

As to `FC(F)c1nnc(-c2ccc(Cn3cc(-c4cccc(NC5CCCCC5)c4)nn3)cc2)o1` [Compound 4324, N-cyclohexyl-3-(1-(4-(5-(difluoromethyl)-1,3,4-oxadiazol-2-yl)benzyl)-1H-1,2,3-triazol-4-yl)aniline], the “HDAC6 selectivity (fold)” value at human recombinant HDAC6 (HDAC1 IC50 / HDAC6 IC50) is on record as 170 fold. In addition, the IC50 on human recombinant HDAC6 (setting [3]) was 294 nM; on human recombinant HDAC1 (setting [4]), greater than 50 µM.

Regarding `Cc1cc2ccc(-c3cn(Cc4ccc(-c5nnc(C(F)F)o5)cc4)nn3)cc2[nH]1` [Compound 4288], the “HDAC6 selectivity (fold)” value at human recombinant HDAC6 (HDAC1 IC50 / HDAC6 IC50) was 486 fold. The IC50 was 103 nM on human recombinant HDAC6 (setting [3]) and greater than 50 µM on human recombinant HDAC1 (setting [4]).

For the molecule `CN(C)C(C)(C)C(=O)Nc1cccc(-c2cn(Cc3ccc(-c4nnc(C(F)F)o4)cn3)nn2)c1` [Compound 4231, N-(3-(1-((5-(5-(difluoromethyl)-1,3,4-oxadiazol-2-yl)pyridin-2-yl)methyl)-1H-1,2,3-triazol-4-yl)phenyl)-2-(dimethylamino)-2-methylpropanamide], the “HDAC6 selectivity (fold)” value at human recombinant HDAC6 (HDAC1 IC50 / HDAC6 IC50) was 914 fold. Besides, the IC50 on human recombinant HDAC6 (setting [3]) is 54.7 nM; on human recombinant HDAC1 (setting [4]), greater than 50 µM.

On to `FC(F)c1nnc(-c2ccc(Cn3cc(-c4cccc(N5CCN(C6COC6)CC5)c4)nn3)nc2)o1` [Compound 3989, 2-(difluoromethyl)-5-(6-((4-(3-(4-(oxetan-3-yl)piperazin-1-yl)phenyl)-1H-1,2,3-triazol-1-yl)methyl)pyridin-3-yl)-1,3,4-oxadiazole], for which the “HDAC6 selectivity (fold)” value on human recombinant HDAC6 (HDAC1 IC50 / HDAC6 IC50) is given as 1597 fold. The IC50 on human recombinant HDAC6 (setting [3]) is 31.3 nM; on human recombinant HDAC1 (setting [4]) it was greater than 50 µM.

Take `Fc1cc(-c2nnc(C(F)F)o2)ccc1Cn1cc(-c2cccc(CN3CCC(F)(F)CC3)c2)nn1` [Compound 4405, 2-(difluoromethyl)-5-(4-((4-(3-((4,4-difluoropiperidin-1-yl)methyl)phenyl)-1H-1,2,3-triazol-1-yl)methyl)-3-fluorophenyl)-1,3,4-oxadiazole]: the “HDAC6 selectivity (fold)” value on human recombinant HDAC6 (HDAC1 IC50 / HDAC6 IC50) amounted to 794 fold. Besides, the IC50 on human recombinant HDAC6 (setting [3]) was 62.9 nM; on human recombinant HDAC1 (setting [4]), greater than 50 µM.

Consider `Fc1cc(-c2nnc(C(F)F)o2)ccc1Cn1cc(-c2cncc(-c3cn[nH]c3)c2)nn1` [Compound 17058, 2-(4-((4-(5-(1H-pyrazol-4-yl)pyridin-3-yl)-1H-1,2,3-triazol-1-yl)methyl)-3-fluorophenyl)-5-(difluoromethyl)-1,3,4-oxadiazole], for which the “HDAC6 selectivity (fold)” value at human recombinant HDAC6 (HDAC6 over HDAC1) amounted to 2777 fold. Moreover, the IC50 at human recombinant HDAC6 (setting [1]) was 18 nM; at human recombinant HDAC1 (setting [2]), greater than 50 µM.
